For one series, the system named is Septoria tritici. Briefly: Example IX-B: in vivo preventive test on Septoria tritici (leaf spot on wheat). The following applies: Zymoseptoria tritici, 576 h; compounds of formula IX; 500 ppm of active ingredient; wheat plants, preventive spray; evaluated 24 days after inoculation; read-out: efficacy. How it is done:
Example IX-B: In Vivo Preventive Test on Septoria Tritici (Leaf Spot on Wheat)
(§1) The active ingredients are made soluble and homogenized in a mixture of Dimethyl sulfoxide/Acetone/Tween® 80 and then diluted in water to the desired concentration.
(§2) The young plants of wheat are treated by spraying the active ingredient prepared as described above. Control plants are treated only with an aqueous solution of Acetone/Dimethyl sulfoxide/Tween® 80.
After 24 hours, the plants are contaminated by spraying the leaves with an aqueous suspension of Septoria tritici spores. The contaminated wheat plants are incubated for 72 hours at 18° C. and at 100% relative humidity and then for 21 days at 20° C. and at 90% relative humidity.
The test is evaluated 24 days after the inoculation. 0% means an efficacy which corresponds to that of the control plants while an efficacy of 100% means that no disease is observed.

The next series has as its system Uromyces appendiculatus. The series can be described thus: Example IX-D: in vivo preventive test on Uromyces appendiculatus (bean rust). Particulars: 264 h, compounds of formula IX, 500 ppm of active ingredient, bean plants, preventive spray, evaluated 11 days after inoculation, read-out: efficacy. The procedure: Example IX-D: In Vivo Preventive Test on Uromyces Appendiculatus (Bean Rust)
as §1
The young plants of bean are treated by spraying the active ingredient prepared as described above. Control plants are treated only with an aqueous solution of Acetone/Dimethyl sulfoxide/Tween® 80.
After 24 hours, the plants are contaminated by spraying the leaves with an aqueous suspension of Uromyces appendiculatus spores. The contaminated bean plants are incubated for 24 hours at 20° C. and at 100% relative humidity and then for 10 days at 20° C. and at 70-80% relative humidity.
(§3) The test is evaluated 11 days after the inoculation. 0% means an efficacy which corresponds to that of the control plants while an efficacy of 100% means that no disease is observed.
control plants while an efficacy of 100% means that no disease was observed.

Another series relates to Puccinia recondita. Briefly: Example IX-A: in vivo preventive test on Puccinia recondita (brown rust on wheat). The following applies: 264 h, compounds of formula IX, 500 ppm of active ingredient, wheat plants, preventive spray, evaluated 11 days after inoculation, read-out: efficacy. How it is done: Example IX-A: In Vivo Preventive Test on Puccinia Recondita (Brown Rust on Wheat)
as §1, §2
After 24 hours, the plants are contaminated by spraying the leaves with an aqueous suspension of Puccinia recondita spores. The contaminated wheat plants are incubated for 24 hours at 20° C. and at 100% relative humidity and then for 10 days at 20° C. and at 70-80% relative humidity.
as §3

Series [1] can be described thus: Log P by HPLC on reversed phase columns (EEC directive 79/831 Annex V.A8; methods [a], [b], [c]). The format is physicochemical. Particulars: reversed phase HPLC column; method [a]: LC-UV, acidic range, 0.1% formic acid in water and acetonitrile as eluent (linear gradient from 10% to 95% acetonitrile). Summed up: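 Log P derived from retention times, interpolated linearly between bracketing straight-chain alkan-2-ones (3–16 carbons) of known Log P. Eluents ran acetonitrile 10% to 95% against water with 0.1% formic acid ([a], acidic), 0.001 M ammonium acetate ([b], neutral) or 0.1% phosphoric acid ([c], acidic); UV read-out.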

For another series, the system named is Sphaerotheca fuliginea. Briefly: Example IX-C: in vivo preventive test on Sphaerotheca fuliginea (powdery mildew on cucurbits). The following applies: Podosphaera fuliginea, 360 h; compounds of formula IX; 500 ppm of active ingredient; gherkin plants, preventive spray; evaluated 15 days after inoculation; read-out: efficacy. How it is done:
Example IX-C: In Vivo Preventive Test on Sphaerotheca Fuliginea (Powdery Mildew on Cucurbits)
as §1
The young plants of gherkin are treated by spraying the active ingredient prepared as described above. Control plants are treated only with an aqueous solution of Acetone/Dimethyl sulfoxide/Tween® 80.
After 24 hours, the plants are contaminated by spraying the leaves with an aqueous suspension of Sphaerotheca fuliginea spores. The contaminated gherkin plants are incubated for 72 hours at 18° C. and at 100% relative humidity and then for 12 days at 20° C. and at 70-80% relative humidity.
The test is evaluated 15 days after the inoculation. 0% means an efficacy which corresponds to that of the control plants while an efficacy of 100% means that no disease is observed.

The structures appear in SMILES notation.

The term chromatographic logP denotes lipophilicity estimated from chromatographic retention. Consider `N#Cc1cncn1CC(=O)c1cnc(Oc2ccc(C(F)(F)F)cc2)cc1Br` [IX-115], for which the pest or weed control at 500 ppm in the series with Septoria tritici, in the series with Uromyces appendiculatus, in the series on Puccinia recondita and in the series with Sphaerotheca fuliginea was 90 to 100% each time. Also, in series [1], the chromatographic logP was determined as 3.37.

Consider `N#Cc1cncn1CC(=O)c1cnc(Oc2ccc(OC(F)(F)F)cc2)cc1C(F)(F)F` [IX-112], for which the pest or weed control at 500 ppm with Septoria tritici fell in the range of 80 to 89%; in the series with Uromyces appendiculatus it was 90 to 100%; in the series on Puccinia recondita, 80 to 89%; with Sphaerotheca fuliginea, 90 to 100%. Also, the chromatographic logP in series [1] is 3.64.

Regarding `O=C(Cn1cncc1Br)c1ccc(Oc2ccc(Cl)cc2)cc1Br` [IX-33], the pest or weed control at 500 ppm in the series with Septoria tritici, with Uromyces appendiculatus, with Puccinia recondita and in the series on Sphaerotheca fuliginea was 90 to 100% each time. In series [1], the chromatographic logP stood at 3.13.

For `N#Cc1cncn1CC(=O)c1ccc(Oc2ccc(I)cc2)cc1Br` [IX-66], the pest or weed control at 500 ppm with Septoria tritici, in the series with Uromyces appendiculatus, in the series on Puccinia recondita and in the series with Sphaerotheca fuliginea was 90 to 100% each time. The chromatographic logP in series [1] was 3.8.

As for `N#Cc1cncn1CC(=O)c1ccc(Oc2ccc(Br)cc2)cc1F` [IX-62], the pest or weed control at 500 ppm in the series on Septoria tritici, with Uromyces appendiculatus, in the series with Puccinia recondita and in the series with Sphaerotheca fuliginea was 90 to 100% each time. The same compound yielded a chromatographic logP in series [1] of 3.33.

Consider `O=C(Cn1cncc1Cl)c1ccc(Oc2ccc(F)cc2)cc1Cl` [IX-08], for which the pest or weed control at 500 ppm was 90 to 100% with Septoria tritici, 90 to 100% with Uromyces appendiculatus, 80 to 89% in the series on Puccinia recondita and 90 to 100% in the series with Sphaerotheca fuliginea. The compound also returned a chromatographic logP in series [1] of 2.73.

For the compound `O=C(Cn1cncc1Cl)c1ccc(Oc2ccc(Cl)cn2)cc1Cl` [IX-05], the pest or weed control at 500 ppm lay within 80 to 89% in the series on Septoria tritici, 80 to 89% in the series on Uromyces appendiculatus, 70 to 79% in the series on Puccinia recondita and 90 to 100% in the series on Sphaerotheca fuliginea. The same compound had a chromatographic logP in series [1] of 2.53.

On to `N#Cc1cncn1CC(=O)c1ccc(Oc2ccc(Cl)nc2)cc1Cl` [IX-60], for which the pest or weed control at 500 ppm was in the range of 90 to 100% with Septoria tritici, 90 to 100% in the series on Uromyces appendiculatus, 80 to 89% in the series on Puccinia recondita and 90 to 100% with Sphaerotheca fuliginea. The chromatographic logP in series [1] was 2.62.

In the case of `O=C(Cn1cncc1Cl)c1cnc(Oc2ccc(Cl)cc2)cc1Br` [IX-50], the pest or weed control at 500 ppm in the series with Septoria tritici was 90 to 100%; with Uromyces appendiculatus, 90 to 100%; in the series on Puccinia recondita it was 80 to 89%; in the series on Sphaerotheca fuliginea, 90 to 100%. The same compound showed a chromatographic logP in series [1] of 2.82.

Take `O=C(Cn1cncc1Cl)c1ccc(Oc2ccc(I)cc2)cc1F` [IX-47]: the pest or weed control at 500 ppm with Septoria tritici, with Uromyces appendiculatus, in the series on Puccinia recondita and with Sphaerotheca fuliginea was 90 to 100% each time. In series [1], this compound gave a chromatographic logP of 3.19.

Consider `O=C(Cn1cncc1Br)c1ccc(Oc2ccc(I)cc2)cc1Br` [IX-42], for which the pest or weed control at 500 ppm in the series on Septoria tritici lay in the range of 90 to 100%; with Uromyces appendiculatus it was 90 to 100%; with Puccinia recondita, 80 to 89%; with Sphaerotheca fuliginea it was 90 to 100%. The compound also yielded a chromatographic logP in series [1] of 3.55.

With `O=C(Cn1cncc1Cl)c1cnc(Oc2ccc(Cl)cc2)cc1Cl` [IX-23], the pest or weed control at 500 ppm in the series with Septoria tritici is 90 to 100%; in the series on Uromyces appendiculatus it was 90 to 100%; in the series with Puccinia recondita, 80 to 89%; in the series on Sphaerotheca fuliginea it was 90 to 100%. The same compound had a chromatographic logP in series [1] of 2.75.

As for `O=C(Cn1cncc1F)c1cnc(Oc2ccc(Br)cc2)cc1C(F)(F)F` [IX-82, 1-[6-(4-bromophenoxy)-4-(trifluoromethyl)-3-pyridyl]-2-(5-fluoroimidazol-1-yl)ethanone], the pest or weed control at 500 ppm in the series on Septoria tritici is 90 to 100%; in the series on Uromyces appendiculatus, 90 to 100%; in the series on Puccinia recondita, 70 to 79%; in the series with Sphaerotheca fuliginea it was 90 to 100%. This compound also yielded a chromatographic logP in series [1] of 2.73.

On to `O=C(Cn1cncc1F)c1cnc(Oc2ccc(Cl)cc2)cc1C(F)(F)F` [IX-104], for which the pest or weed control at 500 ppm with Septoria tritici, in the series with Uromyces appendiculatus, in the series with Puccinia recondita and in the series on Sphaerotheca fuliginea was 90 to 100% each time. Moreover, the chromatographic logP in series [1] was 2.5.

Turning to `N#Cc1cncn1CC(=O)c1ccc(Oc2ccc(Cl)cc2)cc1C(F)(F)F` [IX-54], the pest or weed control at 500 ppm in the series with Septoria tritici lay within 90 to 100%; in the series on Uromyces appendiculatus, 70 to 79%; with Puccinia recondita, 90 to 100%; with Sphaerotheca fuliginea it was 90 to 100%. In series [1], this compound yielded a chromatographic logP of 3.55.

On to `O=C(Cn1cncc1F)c1ccc(Oc2ccc(Br)cc2)nc1C(F)(F)F` [IX-86], for which the pest or weed control at 500 ppm with Septoria tritici, in the series on Uromyces appendiculatus, with Puccinia recondita and in the series with Sphaerotheca fuliginea was 90 to 100% in each case. The same compound showed a chromatographic logP in series [1] of 2.76.

Regarding `O=C(Cn1cncc1Cl)c1ccc(Oc2ccc(Br)cc2)cc1Cl` [IX-15, 1-[4-(4-bromophenoxy)-2-chloro-phenyl]-2-(5-chloroimidazol-1-yl)ethanone], the pest or weed control at 500 ppm with Septoria tritici, with Uromyces appendiculatus, in the series with Puccinia recondita and in the series with Sphaerotheca fuliginea was 90 to 100% each time. The same compound displayed a chromatographic logP in series [1] of 3.13.

For the compound `O=C(Cn1cncc1Cl)c1ccc(Oc2ccc(I)cc2)cc1Br` [IX-38], the pest or weed control at 500 ppm in the series with Septoria tritici, in the series with Uromyces appendiculatus, in the series with Puccinia recondita and in the series on Sphaerotheca fuliginea was 90 to 100% in each case. This compound returned a chromatographic logP in series [1] of 3.35.

As to `N#Cc1cncn1CC(=O)c1ccc(Oc2ccc(Cl)cc2)cc1F` [IX-64], the pest or weed control at 500 ppm with Septoria tritici, with Uromyces appendiculatus, in the series with Puccinia recondita and with Sphaerotheca fuliginea was 90 to 100% each time. In series [1], this compound came in with a chromatographic logP of 3.27.

`O=C(Cn1cncc1F)c1ccc(Oc2ccc(Cl)cc2)nc1F` [IX-88]: the pest or weed control at 500 ppm was in the range of 90 to 100% with Septoria tritici, 80 to 89% in the series with Uromyces appendiculatus, 70 to 79% in the series with Puccinia recondita and 90 to 100% in the series with Sphaerotheca fuliginea. This compound also gave a chromatographic logP in series [1] of 2.14.

Regarding `O=C(Cn1cncc1F)c1cnc(Oc2ccc(Cl)cc2)cc1Br` [IX-93], the pest or weed control at 500 ppm with Septoria tritici lay in the range of 90 to 100%; with Uromyces appendiculatus, 90 to 100%; in the series with Puccinia recondita it was 80 to 89%; with Sphaerotheca fuliginea, 90 to 100%. The same compound had a chromatographic logP in series [1] of 2.39.

Turning to `O=C(Cn1cncc1Cl)c1ccc(Oc2ccc(Cl)cc2)cc1C(F)F` [IX-73], the pest or weed control at 500 ppm with Septoria tritici, in the series with Uromyces appendiculatus and in the series on Puccinia recondita was 90 to 100% each time. Also, in series [1], the chromatographic logP amounted to 3.02.

Turning to `CC(=O)c1cncn1CC(=O)c1cnc(Oc2ccc(Cl)cc2)cc1C(F)(F)F` [IX-120], the pest or weed control at 500 ppm in the series with Septoria tritici fell in the range of 90 to 100%; in the series with Uromyces appendiculatus it was 80 to 89%; with Puccinia recondita, 90 to 100%. Also, in series [1], the chromatographic logP turned out to be 3.55.
